Data on 22 compounds can be found in US12029739B2, “SHP2 inhibitor and use thereof” (KANAPH THERAPEUTICS INC., priority 2021, dated 2024).

Experiment [1] deals with phospho-ERK in MIA PaCa2 or H358 cells. As to the kind of experiment: Phospho-ERK assay (AlphaLisa). The format is cell-based. The note with it: MIA PaCa2 or H358 cells, compound incubated 1.5 hours, read-out: IC50 (p-ERK). Background: Alpha assays give light when donor and acceptor beads are brought close together.
Another experiment concerns the target T1, SHP2 (full length) (Homo sapiens, UniProt Q06124).
T1 construct: SHP2 (full length, diluted to 100 pM final concentration in reaction buffer, BPS bioscience, US); purchased BPS bioscience, US
T1 sequence (Q06124 1-593): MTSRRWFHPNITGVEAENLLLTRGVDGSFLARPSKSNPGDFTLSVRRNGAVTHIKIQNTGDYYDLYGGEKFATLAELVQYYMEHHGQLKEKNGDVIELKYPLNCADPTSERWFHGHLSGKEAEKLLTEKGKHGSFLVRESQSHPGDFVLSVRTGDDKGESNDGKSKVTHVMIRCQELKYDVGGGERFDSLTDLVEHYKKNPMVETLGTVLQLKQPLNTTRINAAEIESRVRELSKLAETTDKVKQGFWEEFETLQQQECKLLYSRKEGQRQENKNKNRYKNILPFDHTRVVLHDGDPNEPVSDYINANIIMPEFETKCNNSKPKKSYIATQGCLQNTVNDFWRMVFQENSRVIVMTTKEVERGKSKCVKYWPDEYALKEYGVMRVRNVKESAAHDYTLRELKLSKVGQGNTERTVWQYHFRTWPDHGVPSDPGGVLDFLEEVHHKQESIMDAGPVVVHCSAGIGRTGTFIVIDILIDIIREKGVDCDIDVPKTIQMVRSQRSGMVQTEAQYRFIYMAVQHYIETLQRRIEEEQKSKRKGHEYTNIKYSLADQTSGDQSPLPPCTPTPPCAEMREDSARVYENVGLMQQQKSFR
The experiment is described as follows: Phosphatase assay (PTPase assay) with DiFMUP substrate. The format is biochemical. The note with it: SHP2 activated with SHP2 activating peptide; DiFMUP 80 μM, 2 hours; fluorescence; read-out: IC50 (PTPase aS say).

Like-named read-outs stand apart in the source and are kept apart here.

On to `C[C@@H]1OCC2(CCN(c3cnc(Sc4ccc5nc(Oc6cccnc6)[nH]c5c4Cl)cn3)CC2)[C@@H]1N` [Example 128], for which the IC50 (commonly the midpoint of a concentration-inhibition curve) in experiment [1] (1.5 h) was under 45 nM; on SHP2 (full length), under 3 nM.
For `Cn1cnc2ccc(Sc3cnc(N4CCC(C)(CN)CC4)cn3)c(Cl)c2c1=O` [Example 15, 6-((5-(4-(aminomethyl)-4-methylpiperidin-1-yl)pyrazin-2-yl)thio)-5-chloro-3-methylquinazolin-4(3H)-one], in that order: 45 to 1500 nM and 3 to 100 nM.
As for `Cn1c(N2CCOC(CN)C2)nc(N)c(Sc2cccc(Cl)c2Cl)c1=O` (centres unmarked) [Example 198, 6-amino-2-(2-(aminomethyl)morpholino)-5-((2,3-dichlorophenyl)thio)-3-methylpyrimidin-4(3H)-one], the IC50 was over 1500 nM in experiment [1] (1.5 h) and over 100 nM at SHP2 (full length).
On the same counts, the results for `COCCn1cnc2ccc(Sc3cnc(N4CCC5(CC4)Cc4scnc4[C@H]5N)c(C(N)=O)n3)c(Cl)c2c1=O` [Example 172, (S)-3-(4-amino-4,6-dihydrospiro[cyclopenta[d]thiazole-5,4′-piperidin]-1′-yl)-6-((5-chloro-3-(2-methoxyethyl)-4-oxo-3,4-dihydroquinazolin-6-yl)thio)pyrazine-2-carboxamide] are under 45 nM and under 3 nM.
For `N[C@@H]1c2ccccc2CC12CCN(c1cnc(Sc3ccc4ncn(CC5CCOC5)c(=O)c4c3Cl)cn1)CC2` (stereo partly drawn) [Example 103, 6-((5-((S)-1-amino-1,3-dihydrospiro[indene-2,4′-piperidin]-1′-yl]pyrazin-2-yl]thio)-5-chloro-3-((tetrahydrofuran-3-yl)methyl)quinazolin-4(3H)-one], in that order: under 45 nM and under 3 nM.
`C[C@@H]1OCC2(CCN(c3cnc(Sc4ccc5ncn(Cc6ccnc(C#N)c6)c(=O)c5c4Cl)cn3)CC2)[C@@H]1N` [Example 71, 4-((6-((5-((3S,4S)-4-amino-3-methyl-2-oxa-8-azaspiro[4.5]decan-8-yl)pyrazin-2-yl)thio)-5-chloro-4-oxoquinazolin-3(4H)-yl)methyl)picolinonitrile]: the concentration for half-maximal inhibition (IC50) was under 45 nM in experiment [1] (1.5 h) and under 3 nM at SHP2 (full length).
For `C[C@@H]1OCC2(CCN(c3cnc(Sc4ccc5ncn(CN6CCOCC6)c(=O)c5c4Cl)cn3)CC2)[C@@H]1N` [Example 78, 6-((5-((3S,4S)-4-amino-3-methyl-2-oxa-8-azaspiro[4.5]decan-8-yl)pyrazin-2-yl)thio)-5-chloro-3-(morpholinomethyl)quinazolin-4(3H)-one], in that order: under 45 nM and under 3 nM.
For the compound `COCCn1cnc2ccc(Sc3cnc(N4CCC5(CC4)Cc4ncccc4[C@H]5N)c(CO)n3)c(Cl)c2c1=O` [Example 168, (S)-6-((5-(5-amino-5,7-dihydrospiro[cyclopenta[b]pyridine-6,4′-piperidin]-1′-yl)-6-(hydroxymethyl)pyrazin-2-yl)thio)-5-chloro-3-(2-methoxyethyl)quinazolin-4(3H)-one], the concentration for half-maximal inhibition (IC50) in experiment [1] (1.5 h) was under 45 nM; on SHP2 (full length), under 3 nM.
For `C[C@@H]1OCC2(CCN(c3cnc(Sc4ccnc(C(=O)NCc5cccnc5)c4Cl)cn3)CC2)[C@@H]1N` [Example 87, 4-((5-((3S,4S)-4-amino-3-methyl-2-oxa-8-azaspiro[4.5]decan-8-yl)pyrazin-2-yl)thio)-3-chloro-N-(pyridin-3-ylmethyl)picolinamide], in that order: 45 to 1500 nM and 3 to 100 nM.
Take `CC(C)(O)Cn1cnc2ccc(Sc3cnc(N4CCC5(CC4)Cc4ncsc4[C@H]5N)cn3)c(Cl)c2c1=O` [Example 147, 6-[5-[(6S)-6-aminospiro[4,6-dihydrocyclopenta[d]thiazole-5,4′piperidin]1′-yl]pyrazin-2-yl]sulfanyl-5-chloro-3-(2-hydroxy-2-methyl-propyl)quinazolin-4-one]: the IC50 in experiment [1] (1.5 h) was under 45 nM; at SHP2 (full length), under 3 nM.
For `COCCn1cnc2ccc(Sc3cnc(N4CCC5(CC4)Cc4scnc4[C@H]5N)cn3)c(Cl)c2c1=O` [Example 151, 6-[5-[(4S)-4-aminospiro[4,6-dihydrocyclopenta[d]thiazole-5,4′-piperidin]-1′-yl]pyrazin-2-yl]sulfanyl-5-chloro-3-(2-methoxyethyl)quinazolin-4-one], in that order: under 45 nM and under 3 nM.
For `COCCn1cnc2ccc(Sc3cnc(N4CCC5(CC4)Cc4ccc(OC)cc4[C@H]5N)cn3)c(Cl)c2c1=O` [Example 158, 6-[5-[(1S)-1-amino-6-methoxy-spiro[indane-2,4′-piperidin]-1′-yl]pyrazin-2-yl]sulfanyl-5-chloro-3-(2-methoxyethyl)quinazolin-4-one], in that order: under 45 nM and under 3 nM.
On the same counts, the results for `COc1ccc(Cn2cnc3ccc(Sc4cnc(N5CCC6(CC5)CO[C@@H](C)[C@H]6N)cn4)c(Cl)c3c2=O)cc1` [Example 41, 6-((5-((3S,4S)-4-amino-3-methyl-2-oxa-8-azaspiro[4.5]decan-8-yl)pyrazin-2-yl)thio)-5-chloro-3-(4-methoxybenzyl)quinazolin-4(3H)-one] are under 45 nM and under 3 nM.
As to `COc1ccc(Cn2cnc3ccc(Sc4cnc(N5CCC6(CC5)CO[C@@H](C)[C@H]6N)cn4)c(Cl)c3c2=O)cc1F` [Example 73, 6-((5-((3S,4S)-4-amino-3-methyl-2-oxa-8-azaspiro[4.5]decan-8-yl)pyrazin-2-yl)thio)-5-chloro-3-(3-fluoro-4-methoxybenzyl)quinazolin-4(3H)-one], the half-inhibitory concentration (IC50) is under 45 nM in experiment [1] (1.5 h) and under 3 nM on SHP2 (full length).
In the case of `C[C@@H]1OCC2(CCN(c3cnc(Sc4ccc5ncn(Cc6ccccc6)c(=O)c5c4Cl)cn3)CC2)[C@@H]1N` [Example 18, 6-((5-((3S,4S)-4-amino-3-methyl-2-oxa-8-azaspiro[4.5]decan-8-yl)pyrazin-2-yl)thio)-3-benzyl-5-chloroquinazolin-4(3H)-one], the IC50 in experiment [1] was under 45 nM; at SHP2 (full length), under 3 nM.
For `C[C@@H]1OCC2(CCN(c3cnc(Sc4ccc5ncn(Cc6ccncn6)c(=O)c5c4Cl)cn3)CC2)[C@@H]1N` [Example 45, 6-((5-((3S,4S)-4-amino-3-methyl-2-oxa-8-azaspiro[4.5]decan-8-yl)pyrazin-2-yl)thio)-5-chloro-3-(pyrimidin-4-ylmethyl)quinazolin-4(3H)-one], the IC50 in experiment [1] (1.5 h) was under 45 nM; at SHP2 (full length), under 3 nM.
For the compound `C[C@@H]1OCC2(CCN(c3cnc(Sc4cccc(S(=O)(=O)NCc5ccccc5)c4Cl)cn3)CC2)[C@@H]1N` [Example 10, 3-((5-((3S,4S)-4-amino-3-methyl-2-oxa-8-azaspiro[4.5]decan-8-yl)pyrazin-2-yl)thio)-N-benzyl-2-chlorobenzenesulfonamide], the IC50 is under 45 nM in experiment [1] (1.5 h) and 3 to 100 nM on SHP2 (full length).
For `C[C@@H]1OCC2(CCN(c3cnc(Sc4ccc5ncn(CC(C)(C)F)c(=O)c5c4Cl)cn3)CC2)[C@@H]1N` [Example 139, 6-((5-((3S,4S)-4-amino-3-methyl-2-oxa-8-azaspiro[4.5]decan-8-yl)pyrazin-2-yl)thio)-5-chloro-3-(2-fluoro-2-methylpropyl)quinazolin-4(3H)-one], in that order: 45 to 1500 nM and 3 to 100 nM.
For `C[C@@H]1OCC2(CCN(c3cnc(Sc4ccc5ncn(Cc6cccnc6N)c(=O)c5c4Cl)cn3)CC2)[C@@H]1N` [Example 52, 6-((5-((3S,4S)-4-amino-3-methyl-2-oxa-8-azaspiro[4.5]decan-8-yl)pyrazin-2-yl)thio)-3-((2-aminopyridin-3-yl)methyl)-5-chloroquinazolin-4(3H)-one], in that order: 45 to 1500 nM and 3 to 100 nM.
On the same counts, the results for `COCCn1cnc2ccc(Sc3nc(C(N)=O)c(N4CCC5(CC4)CO[C@@H](C)[C@H]5N)nc3N)c(Cl)c2c1=O` [Example 154, 5-amino-3-[(3S,4S)-4-amino-3-methyl-2-oxa-8-azaspiro[4.5]decan-8-yl]-6-[5-chloro-3-(2-methoxyethyl)-4-oxo-quinazolin-6-yl]sulfanyl-pyrazine-2-carboxamide] are 45 to 1500 nM and 3 to 100 nM.
As for `Cn1c(N2CCN(C[C@@H](N)c3ccccc3)CC2)nc(N)c(Sc2cccc(Cl)c2Cl)c1=O` [Example 191, (S)-6-amino-2-(4-(2-amino-2-phenylethyl)piperazin-1-yl)-5-((2,3-dichlorophenyl)thio)-3-methylpyrimidin-4(3H)-one], the IC50 in experiment [1] (1.5 h) was over 1500 nM; on SHP2 (full length), over 100 nM.
On the same counts, the results for `C[C@@H]1OCC2(CCN(c3cnc(Sc4ccc5ncn(Cc6ccnc(Cl)c6)c(=O)c5c4Cl)cn3)CC2)[C@@H]1N` [Example 60, 6-((5-((3S,4S)-4-amino-3-methyl-2-oxa-8-azaspiro[4.5]decan-8-yl)pyrazin-2-yl)thio)-5-chloro-3-((2-chloropyridin-4-yl)methyl)quinazolin-4(3H)-one] are under 45 nM and under 3 nM.
